In this assay the test system is ^14C-cholesterol absorption. Nature of the assay: Acute cholesterol absorption assay. It is filed as in vivo. The conditions noted are these: rat, intraduodenal; read-out: rat ED50, inhibition of cholesterol absorption. How it is done:
Acute cholesterol absorption assay. ^14C-cholesterol absorption was determined acutely in rats using conditions previously described (Van Heek et al., J. Pharmacol. Exp. Ther. 283: 157-163 (1997)). Compounds were dissolved in rat bile and delivered (1.0 ml) intraduodenally by bolus injection via an intestinal catheter, followed by 1.0 ml saline rinse (0.9%). Following a 30 min incubation, a cholesterol emulsion containing 3 mg cholesterol and 2 μCi ^14C-cholesterol (3 ml) was delivered to each rat as a bolus via intestinal catheter, followed by 1 ml saline rinse. Animals were sacrificed 90 min later and ^14C-cholesterol levels in plasma, liver, intestinal contents, and intestinal wall were determined.

This passage reports ED50 results from patent publication US8212016B2, “NPC1L1 orthologues” (Schering Corporation, priority 2006, dated 2012).

What is called ED50 is the dose that gives a 50% effect, or the effect in half of the subjects.

As to `O=C(O)[C@H]1O[C@@H](Oc2ccc([C@@H]3[C@@H](CC[C@H](O)c4ccc(F)cc4)C(=O)N3c3ccc(F)cc3)cc2)[C@H](O)[C@@H](O)[C@@H]1O` [compound 4, glucuronidated ezetimibe], the ED50 stood at 1.9 µg/kg.
